US9029337B2, “Modulation of factor 7 expression” (Isis Pharmaceuticals, Inc., priority 2007, dated 2015)
Strand notation (5' to 3'): a small letter for the sugar, then the base; units joined by * are phosphorothioate-linked, units joined directly phosphodiester-linked; [ ] holds rarer units or linkages, { } end groups; capitals alone tell only the bases. e = 2'-O-(2-methoxyethyl) (MOE); [5mC] = 5-methylcytosine; d = 2'-deoxy (DNA)

These substances were tested on human Factor 7 mRNA (assay: Antisense inhibition of human Factor 7 mRNA in HepB3 cells, 50 nM antisense oligonucleotide, lipofectin). Conditions: Table 6, 50 nM, lipofectin, approximately 24 hours.
Assay type: cell-based
Summary of the method: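 Readout is percent reduction of Factor 7 message compared with untreated cells, after correction for total RNA content quantified by RIBOGREEN®. Cultures were seeded at 4,000 cells per well and treated for about 24 hours before RNA extraction.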

Row | Substance | % Inhibition [%]
1 | 422117 (antisense eG*eG*eA*eA*eG*dA*dA*dG*dG*dG*dA*d[5mC]*dG*dG*dA*eA*eG*eG*eT*eG) [compound 422117] | 1
2 | 422118 (antisense e[5mC]*eG*eG*eA*eA*dG*dA*dA*dG*dG*dG*dA*d[5mC]*dG*dG*eA*eA*eG*eG*eT) [compound 422118] | 15
3 | 422119 (antisense eG*e[5mC]*eG*eG*eA*dA*dG*dA*dA*dG*dG*dG*dA*d[5mC]*dG*eG*eA*eA*eG*eG) [compound 422119] | 39
4 | 422120 (antisense e[5mC]*eG*e[5mC]*eG*eG*dA*dA*dG*dA*dA*dG*dG*dG*dA*d[5mC]*eG*eG*eA*eA*eG) [compound 422120] | 40
5 | 422121 (antisense eG*e[5mC]*eG*e[5mC]*eG*dG*dA*dA*dG*dA*dA*dG*dG*dG*dA*e[5mC]*eG*eG*eA*eA) [compound 422121] | 43
6 | 422122 (antisense eA*eG*e[5mC]*eG*e[5mC]*dG*dG*dA*dA*dG*dA*dA*dG*dG*dG*eA*e[5mC]*eG*eG*eA) [compound 422122] | 24
7 | 422123 (antisense eG*eA*eG*e[5mC]*eG*d[5mC]*dG*dG*dA*dA*dG*dA*dA*dG*dG*eG*eA*e[5mC]*eG*eG) [compound 422123] | 16
8 | 422124 (antisense eT*eG*eA*eG*e[5mC]*dG*d[5mC]*dG*dG*dA*dA*dG*dA*dA*dG*eG*eG*eA*e[5mC]*eG) [compound 422124] | 0
9 | 422125 (antisense e[5mC]*eT*eG*eA*eG*d[5mC]*dG*d[5mC]*dG*dG*dA*dA*dG*dA*dA*eG*eG*eG*eA*e[5mC]) [compound 422125] | 8
10 | 422126 (antisense eA*e[5mC]*eT*eG*eA*dG*d[5mC]*dG*d[5mC]*dG*dG*dA*dA*dG*dA*eA*eG*eG*eG*eA) [compound 422126] | 22
11 | 422127 (antisense eT*eA*e[5mC]*eT*eG*dA*dG*d[5mC]*dG*d[5mC]*dG*dG*dA*dA*dG*eA*eA*eG*eG*eG) [compound 422127] | 17
12 | 422128 (antisense eT*eT*eA*e[5mC]*eT*dG*dA*dG*d[5mC]*dG*d[5mC]*dG*dG*dA*dA*eG*eA*eA*eG*eG) [compound 422128] | 27
13 | 422129 (antisense eG*eT*eT*eA*e[5mC]*dT*dG*dA*dG*d[5mC]*dG*d[5mC]*dG*dG*dA*eA*eG*eA*eA*eG) [compound 422129] | 45

Same assay, conditions: Table 13 (microwalk), 50 nM, lipofectin, approximately 24 hours

Row | Substance | % Inhibition [%]
14 | 422149 (antisense e[5mC]*eA*eT*dG*dG*dT*dG*dA*dT*dG*d[5mC]*dT*dT*d[5mC]*dT*dG*dA*eA*eT*eT) [compound 422149] | 61
15 | 422151 (antisense eT*eG*e[5mC]*dA*dT*dG*dG*dT*dG*dA*dT*dG*d[5mC]*dT*dT*d[5mC]*dT*eG*eA*eA) [compound 422151] | 68
16 | 422153 (antisense e[5mC]*eA*eT*dG*d[5mC]*dA*dT*dG*dG*dT*dG*dA*dT*dG*d[5mC]*dT*dT*e[5mC]*eT*eG) [compound 422153] | 67

Same assay, conditions: gapmers targeted to nucleobases 4868 to 4899 of SEQ ID NO: 1, Table 8

Row | Substance | % Inhibition of human Factor 7 mRNA levels [%]
17 | 422138 (antisense eT*e[5mC]*eT*eG*e[5mC]*dA*dG*dG*dA*dG*d[5mC]*dG*dG*d[5mC]*d[5mC]*eT*eA*eA*eA*eT) [compound 422138] | 70
18 | 422139 (antisense eT*eT*e[5mC]*eT*eG*d[5mC]*dA*dG*dG*dA*dG*d[5mC]*dG*dG*d[5mC]*e[5mC]*eT*eA*eA*eA) [compound 422139] | 66
19 | 422141 (antisense eA*eG*eT*eT*e[5mC]*dT*dG*d[5mC]*dA*dG*dG*dA*dG*d[5mC]*dG*eG*e[5mC]*e[5mC]*eT*eA) [compound 422141] | 64
20 | 422143 (antisense e[5mC]*e[5mC]*eG*eA*eG*dT*dT*d[5mC]*dT*dG*d[5mC]*dA*dG*dG*dA*eG*e[5mC]*eG*eG*e[5mC]) [compound 422143] | 70
21 | 422144 (antisense e[5mC]*e[5mC]*e[5mC]*eG*eA*dG*dT*dT*d[5mC]*dT*dG*d[5mC]*dA*dG*dG*eA*eG*e[5mC]*eG*eG) [compound 422144] | 58
22 | 422145 (antisense eG*e[5mC]*e[5mC]*e[5mC]*eG*dA*dG*dT*dT*d[5mC]*dT*dG*d[5mC]*dA*dG*eG*eA*eG*e[5mC]*eG) [compound 422145] | 57
23 | 422146 (antisense eA*eG*e[5mC]*e[5mC]*e[5mC]*dG*dA*dG*dT*dT*d[5mC]*dT*dG*d[5mC]*dA*eG*eG*eA*eG*e[5mC]) [compound 422146] | 58
24 | 422147 (antisense eG*eA*eG*e[5mC]*e[5mC]*d[5mC]*dG*dA*dG*dT*dT*d[5mC]*dT*dG*d[5mC]*eA*eG*eG*eA*eG) [compound 422147] | 64
25 | 422148 (antisense eG*eG*eA*eG*e[5mC]*d[5mC]*d[5mC]*dG*dA*dG*dT*dT*d[5mC]*dT*dG*e[5mC]*eA*eG*eG*eA) [compound 422148] | 57

Same assay, conditions: oligonucleotides targeted to nucleobases 11830 to 11869 of SEQ ID NO: 1 (Table 9)

Row | Substance | % Inhibition (human Factor 7 mRNA levels) [%]
26 | 422107 (antisense eG*e[5mC]*eT*eG*eG*d[5mC]*dT*dG*dA*dG*dG*dA*dG*dA*d[5mC]*eA*eA*eT*eG*eG) [compound 422107] | 36
27 | 422154 (antisense eT*e[5mC]*eA*dG*dG*dG*d[5mC]*dT*dG*dG*dT*dT*dT*dT*dG*dG*dA*eG*eG*eA) [compound 422154] | 31
28 | 422155 (antisense eG*eT*e[5mC]*dA*dG*dG*dG*d[5mC]*dT*dG*dG*dT*dT*dT*dT*dG*dG*eA*eG*eG) [compound 422155] | 34
29 | 422156 (antisense eG*eG*eT*d[5mC]*dA*dG*dG*dG*d[5mC]*dT*dG*dG*dT*dT*dT*dT*dG*eG*eA*eG) [compound 422156] | 38

Same assay, conditions: oligonucleotides targeted to nucleobases 13760 to 13789 of SEQ ID NO: 1 (Table 10)

Row | Substance | % Inhibition (human Factor 7 mRNA levels) [%]
30 | 422108 (antisense e[5mC]*e[5mC]*eG*e[5mC]*e[5mC]*dG*dG*d[5mC]*dT*d[5mC]*dT*dG*d[5mC]*dT*d[5mC]*eA*eT*e[5mC]*e[5mC]*e[5mC]) [compound 422108] | 69
31 | 422109 (antisense e[5mC]*e[5mC]*e[5mC]*eG*e[5mC]*d[5mC]*dG*dG*d[5mC]*dT*d[5mC]*dT*dG*d[5mC]*dT*e[5mC]*eA*eT*e[5mC]*e[5mC]) [compound 422109] | 68
32 | 422110 (antisense eA*e[5mC]*e[5mC]*e[5mC]*eG*d[5mC]*d[5mC]*dG*dG*d[5mC]*dT*d[5mC]*dT*dG*d[5mC]*eT*e[5mC]*eA*eT*e[5mC]) [compound 422110] | 53
33 | 422111 (antisense e[5mC]*eA*e[5mC]*e[5mC]*e[5mC]*dG*d[5mC]*d[5mC]*dG*dG*d[5mC]*dT*d[5mC]*dT*dG*e[5mC]*eT*e[5mC]*eA*eT) [compound 422111] | 37
34 | 422112 (antisense e[5mC]*e[5mC]*eA*e[5mC]*e[5mC]*d[5mC]*dG*d[5mC]*d[5mC]*dG*dG*d[5mC]*dT*d[5mC]*dT*eG*e[5mC]*eT*e[5mC]*eA) [compound 422112] | 61
35 | 422113 (antisense eG*e[5mC]*e[5mC]*eA*e[5mC]*d[5mC]*d[5mC]*dG*d[5mC]*d[5mC]*dG*dG*d[5mC]*dT*d[5mC]*eT*eG*e[5mC]*eT*e[5mC]) [compound 422113] | 68
36 | 422114 (antisense e[5mC]*eG*e[5mC]*e[5mC]*eA*d[5mC]*d[5mC]*d[5mC]*dG*d[5mC]*d[5mC]*dG*dG*d[5mC]*dT*e[5mC]*eT*eG*e[5mC]*eT) [compound 422114] | 50
37 | 422115 (antisense eG*e[5mC]*eG*e[5mC]*e[5mC]*dA*d[5mC]*d[5mC]*d[5mC]*dG*d[5mC]*d[5mC]*dG*dG*d[5mC]*eT*e[5mC]*eT*eG*e[5mC]) [compound 422115] | 66
38 | 422116 (antisense eT*eG*e[5mC]*eG*e[5mC]*d[5mC]*dA*d[5mC]*d[5mC]*d[5mC]*dG*d[5mC]*d[5mC]*dG*dG*e[5mC]*eT*e[5mC]*eT*eG) [compound 422116] | 52

Same assay, conditions: oligonucleotides targeted to nucleobases 14707 to 14732 of SEQ ID NO: 1 (Table 11)

Row | Substance | % Inhibition (human Factor 7 mRNA levels) [%]
39 | 422131 (antisense eA*eG*e[5mC]*e[5mC]*eT*dG*dA*dG*dG*d[5mC]*d[5mC]*dA*dG*d[5mC]*dA*eG*eA*eT*e[5mC]*eA) [compound 422131] | 68
40 | 422132 (antisense eG*e[5mC]*eA*eG*e[5mC]*d[5mC]*dT*dG*dA*dG*dG*d[5mC]*d[5mC]*dA*dG*e[5mC]*eA*eG*eA*eT) [compound 422132] | 54
41 | 422133 (antisense eA*eG*e[5mC]*eA*eG*d[5mC]*d[5mC]*dT*dG*dA*dG*dG*d[5mC]*d[5mC]*dA*eG*e[5mC]*eA*eG*eA) [compound 422133] | 65

Same assay, conditions: oligonucleotides targeted to nucleobases 15098 to 15122 of SEQ ID NO: 1 (Table 12)

Row | Substance | % Inhibition (human Factor 7 mRNA levels) [%]
42 | 422134 (antisense eG*e[5mC]*eA*e[5mC]*eA*d[5mC]*dA*dT*dG*dG*dA*dG*dT*d[5mC]*dA*eG*e[5mC]*eA*eT*e[5mC]) [compound 422134] | 67
43 | 422135 (antisense eA*eG*e[5mC]*eA*e[5mC]*dA*d[5mC]*dA*dT*dG*dG*dA*dG*dT*d[5mC]*eA*eG*e[5mC]*eA*eT) [compound 422135] | 53
44 | 422136 (antisense e[5mC]*eA*eG*e[5mC]*eA*d[5mC]*dA*d[5mC]*dA*dT*dG*dG*dA*dG*dT*e[5mC]*eA*eG*e[5mC]*eA) [compound 422136] | 57
45 | 422137 (antisense eA*e[5mC]*eA*eG*e[5mC]*dA*d[5mC]*dA*d[5mC]*dA*dT*dG*dG*dA*dG*eT*e[5mC]*eA*eG*e[5mC]) [compound 422137] | 45
